The values below come from patent US20230174584A1, “Antibiotic Compounds” (priority 2019, published 2023).

The test system of one data set is NRS52. Put plainly: MIC assay, VISA and VRSA panel. It is filed as cell-based, Staphylococcus aureus. As to the method: (§1) The antibacterial activity of the compounds was tested against a panel of bacteria, including Gram-positive bacteria (S. aureus ATCC29213, S. aureus USA300, S. aureus LIM-2, NR-45881, S. aureus HIP13419, NR-46413, E. faecium E155, E. faecium E7314, E. faecium E980, E. faecalis E1246, E. faecalis E7406 and S. pneumonia 153). The antibacterial activity of the compounds was further tested against S. aureus NY-155, NR-46236, S. aureus HIP12864, NR-46074, S. aureus 880 (BR-VRSA), NR-49120, E. faecalis E1246, E. faecalis E7604, as well as some Gram-negative bacteria (Escherichia coli and Klebsiella pneumoniae). Minimum inhibitory concentrations (MICs) in μg/mL were performed according to the CLSI guidelines. From glycerol stocks, bacterial strains were cultured on blood agar plates and incubated at 37° C. for 18 h. A single colony was transferred to tryptic soy broth (TSB) with 0.002% polysorbate 80 (p80). For the Enterococcus, VISA and VRSA strains, the cultures were grown at 37° C. until the optical density of the suspension reached a level equivalent to the 0.5 McFarland standard. The bacterial suspensions were diluted in TSB with 0.002% p80 to reach a bacterial cell density of 10^6 CFU/mL. In case of the other (vancomycin-sensitive) S. aureus strains, the direct colony suspension method was used. For these strains, after transfer of the colonies to TSB with 0.002% p80, they were immediately diluted to 10^6 CFU/mL, instead of incubated prior to this dilution. In the case of S. pneumonia, direct colony suspension was used by immediately suspending multiple colonies from fresh blood agar plates in TSB+0.002% p80 to an OD600 of 0.5 and subsequent dilution to 10^6 CFU mL^−1 in TSB+0.002% p80+5% lysed horse blood. Antibiotic dilutions for this strains were also made in TSB+0.002% p80+5% lysed horse blood. Both agar and microplates containing S. pneumonia were incubated at 37° C. with 5% CO2 for 24 h with constant shaking (600 rpm). […] The cultures were grown to exponential phase (OD600=0.5) at 37° C. […] In polypropylene 96-well microtiter plates, test compounds were added in biological triplicates and serial diluted 2-fold by transfer and mixing from one well to the next to achieve a final volume of 50 μL per well. An equal volume of bacterial suspension (10^6 CFU mL^−1) was added to the wells. The plates were sealed with breathable membranes and incubated at 37° C. for 24 h with constant shaking (600 rpm). In polypropylene microtiter plates, 100 μL of the test compounds was added to the first row in biological triplicates, and 50 μL of media was added to the other wells. The compounds were subjected to serial dilution by transfer and mixing of 50 μL from one well to the next. Subsequently, 50 μL of bacterial suspension (10^6 CFU/mL) was added to the wells. The plates were sealed with breathable membranes and incubated at 37° C. for 24 h with constant shaking (600 rpm). Positive growth control consisted of wells with bacterial suspension and without antibiotic. Negative growth control consisted of solely media without bacterial suspension or antibiotic. The MICs were determined from the median of a minimum of triplicates.

The subject of the next data set is NRS63SH. Put plainly: MIC assay, VISA and VRSA panel. It is filed as cell-based, Staphylococcus aureus. As to the method:
as §1

The test system of the next data set is VRS3a. Put plainly: MIC assay, VISA and VRSA panel. It is filed as cell-based, Staphylococcus aureus. Here is the method:
as §1

The next data set has as its system VRS5. As to the kind of experiment: MIC assay, VISA and VRSA panel. In kind it is cell-based, Staphylococcus aureus. Here is the method: as §1
In another data set the test system is VRS8. Put plainly: MIC assay, VISA and VRSA panel. In kind it is cell-based, Staphylococcus aureus. As to the method: as §1
Data set [1] concerns HepG2 human hepatocellular carcinoma cells. Put plainly: Cytotoxicity assay for HepG2 (MTT). It is filed as cell-based. The settings on record: MTT, HepG2, 24 h, 10% FBS. As to the method: (§2) Mammalian cytotoxicity assays were performed by Cyprotex. Cytotoxicity was assessed using the MTT assay. Briefly, HepG2 human hepatocellular carcinoma cells (100 μL per well) were plated on black-walled clear-bottomed polystyrene 96-well tissue culture treated plates 24 h prior to dosing the cells. The cells were dosed with test compound (dissolved in 0.5% DMSO in growth media containing 10% FBS) at a range of concentrations (0.04 μM, 0.1 μM, 0.4 μM, 1 μM, 4 μM, 10 μM, 40 μM, 100 μM). After 23 h period the cells were loaded with the MTT dye (yellow; 3-(4,5-dimethyl-2-thiazolyl)-2,5-diphenyl-2H-tetrazolium bromide) followed by an additional 1 h incubation (resulting in a total incubation time with antibiotics of 24 h). Subsequently, the plates are dried and solubilized in DMSO followed by scanning at 570 nm using a microplate absorbance reader. Cell viability is determined by conversion of the soluble MTT to insoluble formazan (purple) by mitochondrial […] in live cells. Production of formazan indicates […]. Carbonyl cyanide 3-chlorophenylhydrazone is used as no response control and chlorpromazine is used as control known to be cytotoxic. Solvent control wells (0.5% DMSO in growth media containing 10% FBS) are then used to determine significance limits for wells that have a greater than expected fraction of low or high responders. The minimum effective concentration is determined from the lowest concentration whose mean value exceeds the significance level, provided either a clear dose-response relationship is observed, or at least two consecutive concentration points are above the significance level. AC50 values are also determined provided a clear dose-response relationship is observed. Experiment was performed in triplicates.

A short description of data set [2]: Cytotoxicity assay for HepG2 (MTT). The settings on record: human; MTT, HepG2, 24 h, 10% FBS, n = 3; read-out: AC50. It is filed as cell-based, human. Here is the method:
as §2

≈ marks a conversion by molar mass, not a printed value.

What is called MIC is the lowest concentration found to suppress growth. Read a low MIC as greater potency. For orientation: AC50 means the concentration giving half of the maximal activity seen. As to `CCCCCCCNC(N)=Nc1ccc(CN[C@@]2(C)C[C@H](O[C@H]3[C@H](Oc4c5cc6cc4Oc4ccc(cc4Cl)[C@@H](O)[C@@H](NC(=O)[C@@H](CC(C)C)NC)C(=O)N[C@@H](CC(N)=O)C(=O)N[C@H]6C(=O)N[C@H]4C(=O)N[C@H](C(=O)N[C@H](C(=O)O)c6cc(O)cc(O)c6-c6cc4ccc6O)[C@H](O)c4ccc(c(Cl)c4)O5)O[C@H](CO)[C@@H](O)[C@@H]3O)O[C@@H](C)[C@H]2O)cc1` [Compound 5], the MIC was 0.031 µg/mL (≈ 0.0183 µM) in the data set with NRS52 (strain NRS52); 8 µg/mL (≈ 4.72 µM) with NRS63SH (strain NRS63SH); 0.25 µg/mL (≈ 0.148 µM) in the data set on VRS3a (strain VRS3a); 4 µg/mL (≈ 2.36 µM) in the data set on VRS5 (strain VRS5); 16 µg/mL (≈ 9.44 µM) against VRS8 (strain VRS8). In addition, in data set [1] (n = 3), the AC50 was greater than 100 µM.

In the case of `CCCCCCN(CCCCCC)C(N)=Nc1ccc(CN[C@@]2(C)C[C@H](O[C@H]3[C@H](Oc4c5cc6cc4Oc4ccc(cc4Cl)[C@@H](O)[C@@H](NC(=O)[C@@H](CC(C)C)NC)C(=O)N[C@@H](CC(N)=O)C(=O)N[C@H]6C(=O)N[C@H]4C(=O)N[C@H](C(=O)N[C@H](C(=O)O)c6cc(O)cc(O)c6-c6cc4ccc6O)[C@H](O)c4ccc(c(Cl)c4)O5)O[C@H](CO)[C@@H](O)[C@@H]3O)O[C@@H](C)[C@H]2O)cc1` [Compound 12], the MIC was 0.031 µg/mL (≈ 0.0176 µM) against NRS52 (strain NRS52); 2 µg/mL (≈ 1.13 µM) in the data set on NRS63SH (strain NRS63SH); less than 0.016 µg/mL against VRS3a (strain VRS3a); 1 µg/mL (≈ 0.567 µM) with VRS5 (strain VRS5); 4 µg/mL (≈ 2.27 µM) in the data set on VRS8 (strain VRS8). The AC50 in data set [1] (n = 3) is greater than 100 µM.

For the molecule `CN[C@H](CC(C)C)C(=O)N[C@H]1C(=O)N[C@@H](CC(N)=O)C(=O)N[C@H]2C(=O)N[C@H]3C(=O)N[C@H](C(=O)N[C@H](C(=O)O)c4cc(O)cc(O)c4-c4cc3ccc4O)[C@H](O[C@H]3C[C@](C)(N)[C@@H](O)[C@H](C)O3)c3ccc(c(Cl)c3)Oc3cc2cc(c3O[C@@H]2O[C@H](CO)[C@@H](O)[C@H](O)[C@H]2O[C@H]2C[C@](C)(NCc3ccc(-c4ccc(Cl)cc4)cc3)[C@@H](O)[C@H](C)O2)Oc2ccc(cc2Cl)[C@H]1O` [Oritavancin], the MIC against NRS52 (Staphylococcus aureus, NRS52) came to 0.5 µg/mL (≈ 0.279 µM); in the data set with NRS63SH (Staphylococcus aureus) it was 1 µg/mL (≈ 0.558 µM); in the data set on VRS3a (Staphylococcus aureus), 0.5 µg/mL (≈ 0.279 µM); against VRS5 (Staphylococcus aureus), 0.5 µg/mL (≈ 0.279 µM); with VRS8 (Staphylococcus aureus) it was 1 µg/mL (≈ 0.558 µM). The AC50 at 24 h in data set [2] is greater than 100 µM. Moreover, in data set [1], the “Direction of response (↑↓)” value was “↓”. Besides, in data set [1] (n = 3), the MEC amounted to 76.5 µM.

With `CCCCCCCCCCNCCN[C@@]1(C)C[C@H](O[C@H]2[C@H](Oc3c4cc5cc3Oc3ccc(cc3Cl)[C@@H](O)[C@@H](NC(=O)[C@@H](CC(C)C)NC)C(=O)N[C@@H](CC(N)=O)C(=O)N[C@H]5C(=O)N[C@H]3C(=O)N[C@H](C(=O)N[C@H](C(=O)O)c5cc(O)c(CNCP(=O)(O)O)c(O)c5-c5cc3ccc5O)[C@H](O)c3ccc(c(Cl)c3)O4)O[C@H](CO)[C@@H](O)[C@@H]2O)O[C@@H](C)[C@H]1O` [Telavancin, reference compound], the MIC in the data set on NRS52 (Staphylococcus aureus, NRS52) is 0.25 µg/mL (≈ 0.142 µM); against NRS63SH (Staphylococcus aureus) it was 8 µg/mL (≈ 4.56 µM); with VRS3a (Staphylococcus aureus), 1 µg/mL (≈ 0.57 µM); against VRS5 (Staphylococcus aureus), 4 µg/mL (≈ 2.28 µM); against VRS8 (Staphylococcus aureus), 16 µg/mL (≈ 9.11 µM). Moreover, the AC50 at 24 h in data set [2] is greater than 100 µM.

In the case of `CN[C@H](CC(C)C)C(=O)N[C@H]1C(=O)N[C@@H](CC(N)=O)C(=O)N[C@H]2C(=O)N[C@H]3C(=O)N[C@H](C(=O)N[C@H](C(=O)O)c4cc(O)cc(O)c4-c4cc3ccc4O)[C@H](O)c3ccc(c(Cl)c3)Oc3cc2cc(c3O[C@@H]2O[C@H](CO)[C@@H](O)[C@H](O)[C@H]2O[C@H]2C[C@](C)(N)[C@H](O)[C@H](C)O2)Oc2ccc(cc2Cl)[C@H]1O` [Vancomycin, reference compound], the MIC in the data set on NRS52 (Staphylococcus aureus, NRS52) was 4 µg/mL (≈ 2.76 µM); against NRS63SH (Staphylococcus aureus) it was greater than 128 µg/mL; against VRS3a (Staphylococcus aureus) it was 64 µg/mL (≈ 44.2 µM); with VRS5 (Staphylococcus aureus) it was greater than 128 µg/mL; in the data set on VRS8 (Staphylococcus aureus), greater than 128 µg/mL. For the same molecule, in data set [2], the AC50 at 24 h was greater than 100 µM.
